Test results as given in article PMC10526274, “Epithelial-Immune Cell Crosstalk Determines the Activation of Immune Cells In Vitro by the Human Cathelicidin LL-37 at Low Physiological Concentrations” (Biomolecules, 2023).

System: monocytes in Caco-2/Monocytes co-culture
Assay: Multiplex phosphoprotein signaling in monocyte lysates, Caco-2/monocytes co-culture + LL-37
Format: cell-based, human
Conditions: monocyte lysate, 1 µM LL-37, 2 h, mean MFI normalized to β-tubulin
Procedure: Primary blood monocytes were isolated from PBMCs by plastic adhesion in the wells of a 24-well plate 24 h prior to the experiment. For that, 2 × 10^6 PBMC were seeded in each well in 2 mL of RPMI-1640 without supplements and kept for 1 h in a humidified CO2-incubator (5% CO2, 37 °C). Then, the adhered monocytes were thoroughly washed 3 times with the culture medium without supplements, and 600 µL of the complete RPMI-1640, supplemented with 10% Human AB serum, was added into each well. Then, 24 h later, the medium in the wells of a 24-well plate was replaced by a fresh medium with or without 1 µM of LL-37, and the permeable inserts with Caco-2 monolayers with TEER > 400 Ω × cm^2, containing 400 μL of the complete medium in their apical chamber, were immediately placed into the appropriate wells for 2 h. Then, 2 h later, the culture medium and the inserts were carefully removed, and the cells in each well were washed with PBS and lysed in 100 µL of MILLIPLEX MAP Lysis Buffer (cat. #43-040, Merck, Darmstadt, Germany), containing phosphatase inhibitors including 1 mM sodium orthovanadate (Na3VO4). To prevent protein degradation, a protease inhibitor cocktail (cat. #535140, Merck) was freshly added to the MILLIPLEX MAP Lysis Buffer. Cell lysate preparation was performed in accordance with the manufacturer’s instructions.
The phosphorylation of the following key cell signaling kinases and transcription factors was measured in cell lysates by using the MILLIPLEX multi-pathway magnetic bead 9-plex kit (#48-680MAG, Merck), containing phosphorylation state-specific antibodies: ERK/MAP kinase 1/2 (Thr185/Tyr187), Akt (Ser473), STAT3 (Ser727), JNK (Thr183/Tyr185), p70S6 kinase (Thr412), NF-κB (Ser536), STAT5A/B (Tyr694/699), CREB (Ser133), and p38 (Thr180/Tyr182). β-Tubulin MAPmate magnetic beads (#46-713MAG, Merck) were used as an assay normalization control to normalize the total protein level between the samples. A multiplex assay was carried out in accordance with the manufacturer’s instructions with overnight incubation of the samples with primary antibodies to phosphorylated signaling proteins on the MAGPIX system (Merck) using the xPONENT 4.2 software (Merck). The final analysis of the acquired fluorescence data was performed with the MILLIPLEX Analyst v5.1 software (Merck). Normalized MFI values were compared with an unpaired two-sample t-test using GraphPad Prism v.8.0.1 (GraphPad Software). The p-values ≤ 0.05 were considered significant.

LL-37: the only human cathelicidin, host defense antimicrobial peptide of 37 a.a. residues, produced by solid-phase peptide synthesis
phosphorylated STAT3 (control 0.06): 0.06 MFI | phosphorylated NF-kB (control 0.09): 0.09 MFI | phosphorylated STAT5 (control 0.09): 0.09 MFI | phosphorylated JNK (control 48.84): 176.7 MFI | phosphorylated p70S6K (control 472.48): 902.08 MFI | phosphorylated Akt (control 2712): 2358 MFI | phosphorylated ERK 1/2 (control 5812): 11464 MFI | phosphorylated p38 (control 17697): 21951 MFI | phosphorylated CREB (control 81479): 106317 MFI
